Results on one compound are retold here after patent publication US5759768A, “Assays for factors affecting circularization of DNA, assays for factors affecting DNA integration, factors, and uses thereof” (priority 1995, dated 1998).

In the experiment the test system is viral DNA. As to the kind of experiment: PCR analysis of circular viral DNA formed in vitro. It is filed as biochemical, HIV-1. How it is done:
The following oligonucleotides were used for PCR: PBS, 5'-GTCGCCGCCCCTCGCCTC-3'(SEQ ID No. 1); tat, 5'-[…]-3'(SEQ ID No. 2); nef, 5'-[…]-3'(SEQ ID No. 3); R1, 5'-[…]-3'(SEQ ID No. 4); R2, 5'-[…]-3'(SEQ ID No. […]). One hundred microliter reactions contained 10 mM Tris hydrochloride (pH 8.3), 50 mM KCl, 1.5 mM MgCl2, 0.001% (w/v) gelatin, 200 μM each dATP, dCTP, dGTP, and dTTP, 1 μM each of the indicated primer, and 2.5 units of AmpliTaq recombinant Taq DNA polymerase (Perkin Elmer Cetus Co., Norwalk, Conn.). For amplification of viral DNA from cytoplasmic extracts, each reaction contained approximately 1/30 the amount of DNA from a 3 ml extract. For amplification of viral DNA from Hirt extractions, each reaction contained DNA from the equivalent of 2×10^6 cells. An initial denaturation step at 98° C. was performed for 10 minutes. Thirty cycles of the PCR reaction were then performed with an annealing temperature of 60° C. for 1 minute, an extension temperature of 72° C. for 5 minutes, and a denaturation temperature of 95° C. for 1 minute. Reaction products were visualized following electrophoresis on 1% agarose gel containing ethidium bromide. […]
Additional rounds of PCR amplification were necessary to detect the presence of a DNA fragment corresponding to the 2-LTR junction fragment when viral DNA from Hirt supernatants of infected cells were used, presumably due to the lower concentration of 2-LTR circles as compared to 1-LTR circles in these preparations (data not shown). Similarly, 2-LTR junction fragments were not readily detected among the amplification products of circular viral DNA formed in vitro, most likely due to the low concentration of simple 2-LTR circles and competition by the other forms of circular viral DNA (1-LTR circles and 2-LTR circles formed by autointergration) present at much higher concentrations. […]

Molecules are shown by their SMILES.

Turning to `Nc1ncnc2c1ncn2[C@@H]1O[C@H](COP(=O)(O)OP(=O)(O)OP(=O)(O)O)[C@@H](O)[C@H]1O` [ATP, adenosine triphosphate], the “PCR amplification product (2-LTR junction, R region primers)” value (SalI digested circular DNA formed with added ATP) is on record as “A DNA fragment of the same size was detected”. Moreover, where the note is “extracts incubated with 1 mM ATP”, the “PCR amplification products (PBS and tat primers, autointegration)” value was “a mixture of DNA fragments of heterogeneous lengths”. Further, the “PCR amplification product (1-LTR circle junction)” value (extracts treated with 1 mM ATP, PBS and nef primers) was “a DNA fragment having the size expected for a 1-LTR circle junction was generated”.
